Columns and labels:
Format in all cases: functional
Settings in all cases: route intravenous
[1] = system: Felis catus; assay: Fall of blood pressure in anaesthetized cat at a dose of 1 mg/kg intravenously
[2] = system: Felis catus; assay: Percent of maximum effect in anaesthetized cat at a dose of 5 mg/kg intravenously
[3] = system: Felis catus; assay: Fall of blood pressure in anaesthetized cat at a dose of 5 mg/kg intravenously
[4] = system: Felis catus; assay: Percent of maximum effect in anaesthetized cat at a dose of 1 mg/kg intravenously

Structure (SMILES) | Decrease in blood pressure [1] | Max effect [2] | Decrease in blood pressure [3] | Max effect [4]
CC(C)NCC(O)CO/N=C1\CCCOc2ccc3ccccc3c21 (stereo not drawn) | 10 mmHg | 70% | 80 mmHg | 7%
CC(C)NCC(O)COc1cccc2ccccc12 (stereo not drawn) [PROPRANOLOL] | 46 mmHg | 41% | 50 mmHg | 35%
CCCNCC(O)CO/N=C1\CCCOc2c1ccc1ccccc21 (stereo not drawn) | 20 mmHg | 50% | 60 mmHg | 21%
CC(C)(C)NCC(O)CO/N=C1\CCCOc2ccc3ccccc3c21 (stereo not drawn) | 18 mmHg | 41% | 50 mmHg | 21%
CCCNCC(O)CO/N=C1\CCCOc2ccc3ccccc3c21 (stereo not drawn) | 18 mmHg | 17% | 16 mmHg | 17%
CC(C)NCC(O)CO/N=C1\CCCOc2c1ccc1ccccc21 (stereo not drawn) | 20 mmHg | 88% | 110 mmHg | 14%
CC(C)(C)NCC(O)CO/N=C1\CCCOc2c1ccc1ccccc21 (stereo not drawn) | 60 mmHg | 55% | 80 mmHg | 40%

Source: ChEMBL document CHEMBL1146643, “Potential hypotensive agents: synthesis and hypotensive activity of oxime ethers derived from 1-naphthoxepines and related compounds” (2004)
